Target: T1, hFASN enzyme (full length) (Homo sapiens, UniProt P49327)
T1 construct: 10 μL hFASN enzyme (full length, 300 ng, purified in house); made in house
Experiment: Fatty Acid Synthase (FASN) inhibition scintillation proximity assay
Assay type: biochemical
Conditions: for inhibition at 10 µM: read-out: Human FASN % inhibition @ 10 μM, 10 μM test compound; for IC50: read-out: Human FASN pIC50 (converted)
Outline: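 Proximity read-out: hydrophobic ^3H-palmitate formed from ^3H-acetyl-CoA and malonyl-CoA binds streptavidin imaging beads, imaged at 610±20 nm at least 24 h after stopping. Enzyme was in-house purified full-length hFASN, 300 ng, in pH 7.5 phosphate/DTT buffer; compound series 30 μM down to 0.01 μM, normalized to controls, 4-parameter fit.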

T1 sequence (P49327 whole entry): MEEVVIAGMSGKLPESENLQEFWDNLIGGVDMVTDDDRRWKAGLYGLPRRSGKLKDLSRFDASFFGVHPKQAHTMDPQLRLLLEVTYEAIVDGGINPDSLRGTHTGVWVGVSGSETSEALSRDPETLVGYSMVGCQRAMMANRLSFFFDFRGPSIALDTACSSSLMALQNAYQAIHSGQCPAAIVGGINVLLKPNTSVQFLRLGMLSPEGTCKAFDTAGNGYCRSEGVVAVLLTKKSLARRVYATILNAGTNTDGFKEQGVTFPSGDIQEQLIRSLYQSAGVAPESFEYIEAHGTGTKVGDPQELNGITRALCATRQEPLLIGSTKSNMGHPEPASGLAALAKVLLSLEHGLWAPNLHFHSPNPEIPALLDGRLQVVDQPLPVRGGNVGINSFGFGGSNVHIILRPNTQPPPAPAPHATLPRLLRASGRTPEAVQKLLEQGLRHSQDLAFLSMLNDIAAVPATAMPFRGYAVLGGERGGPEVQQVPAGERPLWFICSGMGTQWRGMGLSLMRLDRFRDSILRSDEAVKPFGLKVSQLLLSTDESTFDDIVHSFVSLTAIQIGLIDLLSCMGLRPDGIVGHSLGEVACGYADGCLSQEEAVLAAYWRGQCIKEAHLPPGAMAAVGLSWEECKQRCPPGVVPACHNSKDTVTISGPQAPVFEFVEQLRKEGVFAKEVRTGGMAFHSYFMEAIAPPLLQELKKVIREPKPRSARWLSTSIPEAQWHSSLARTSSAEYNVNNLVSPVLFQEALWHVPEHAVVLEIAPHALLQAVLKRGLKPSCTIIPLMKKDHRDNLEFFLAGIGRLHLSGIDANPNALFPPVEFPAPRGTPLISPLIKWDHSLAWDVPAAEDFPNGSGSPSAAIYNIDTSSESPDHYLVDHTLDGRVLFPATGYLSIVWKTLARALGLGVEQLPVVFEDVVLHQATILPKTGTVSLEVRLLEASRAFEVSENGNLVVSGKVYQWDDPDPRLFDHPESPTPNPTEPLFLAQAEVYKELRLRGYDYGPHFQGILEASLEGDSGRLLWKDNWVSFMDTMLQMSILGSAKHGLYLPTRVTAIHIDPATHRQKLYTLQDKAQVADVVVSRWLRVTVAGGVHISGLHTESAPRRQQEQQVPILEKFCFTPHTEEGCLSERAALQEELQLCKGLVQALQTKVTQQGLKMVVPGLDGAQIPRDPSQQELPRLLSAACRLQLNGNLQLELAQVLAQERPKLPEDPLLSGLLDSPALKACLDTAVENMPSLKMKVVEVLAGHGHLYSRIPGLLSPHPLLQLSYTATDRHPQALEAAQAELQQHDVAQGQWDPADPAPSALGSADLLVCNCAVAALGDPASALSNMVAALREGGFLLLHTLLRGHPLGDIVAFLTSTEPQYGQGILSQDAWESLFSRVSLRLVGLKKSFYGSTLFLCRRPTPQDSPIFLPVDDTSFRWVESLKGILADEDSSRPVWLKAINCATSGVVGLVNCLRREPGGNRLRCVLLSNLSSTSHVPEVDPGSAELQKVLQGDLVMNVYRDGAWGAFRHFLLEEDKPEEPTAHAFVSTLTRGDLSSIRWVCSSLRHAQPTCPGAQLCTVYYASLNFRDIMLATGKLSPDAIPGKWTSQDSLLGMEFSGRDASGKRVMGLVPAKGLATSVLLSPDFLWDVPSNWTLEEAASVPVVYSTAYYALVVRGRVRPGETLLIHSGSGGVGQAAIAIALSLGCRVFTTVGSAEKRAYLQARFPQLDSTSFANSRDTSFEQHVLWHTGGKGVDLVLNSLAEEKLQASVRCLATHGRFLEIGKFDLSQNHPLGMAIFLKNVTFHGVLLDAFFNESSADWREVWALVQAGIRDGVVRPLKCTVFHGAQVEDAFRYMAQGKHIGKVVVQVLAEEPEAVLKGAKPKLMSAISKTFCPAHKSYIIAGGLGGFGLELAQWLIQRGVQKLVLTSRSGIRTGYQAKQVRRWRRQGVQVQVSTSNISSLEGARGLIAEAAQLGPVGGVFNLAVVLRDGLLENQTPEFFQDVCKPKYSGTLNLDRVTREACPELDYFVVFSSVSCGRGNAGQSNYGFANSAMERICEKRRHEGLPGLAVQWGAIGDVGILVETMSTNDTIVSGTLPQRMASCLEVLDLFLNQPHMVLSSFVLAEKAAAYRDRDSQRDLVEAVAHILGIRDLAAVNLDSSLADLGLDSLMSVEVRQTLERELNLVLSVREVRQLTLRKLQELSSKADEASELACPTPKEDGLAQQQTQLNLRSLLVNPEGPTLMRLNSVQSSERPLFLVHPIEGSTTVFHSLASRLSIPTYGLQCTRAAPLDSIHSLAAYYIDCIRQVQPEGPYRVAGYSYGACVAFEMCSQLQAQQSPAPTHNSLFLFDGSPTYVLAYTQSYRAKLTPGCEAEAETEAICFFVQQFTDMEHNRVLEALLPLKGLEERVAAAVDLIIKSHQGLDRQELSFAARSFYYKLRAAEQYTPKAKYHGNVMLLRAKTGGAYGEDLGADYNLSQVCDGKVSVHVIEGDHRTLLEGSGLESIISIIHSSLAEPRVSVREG

SMILES	inhibition at 10 µM [%]	IC50 [µM]
O=C(C1CC1)N1CC(CN2C(=O)C3(CC3)N=C2c2ccc(-c3ccc(C4CC4)nc3)cc2)C1 [compound 798, 6-((1-(cyclopropanecarbonyl)azetidin-3-yl)methyl)-5-(4-(6-cyclopropylpyridin-3-yl)phenyl)-4,6-diazaspiro[2.4]hept-4-en-7-one]	30	> 10
O=C(N1CCCC1)N1CC(CN2C(=O)C3(CCOC3)N=C2c2ccc(-c3ccc4occc4c3)cc2)C1 (centres unmarked) [compound 721, 2-[4-(1-Benzofuran-5-yl)phenyl]-3-{[1-(pyrrolidin-1-ylcarbonyl)azetidin-3-yl]methyl}-7-oxa-1,3-diazaspiro[4.4]non-1-en-4-one]	63	5.75
N#Cc1cc2cc(-c3ccc(C4=NC5(CC5)C(=O)N4CC4CN(C(=O)C5CC5)C4)cc3F)ccc2o1 [compound 477, 5-[4-(6-{[1-(Cyclopropylcarbonyl)azetidin-3-yl]methyl}-7-oxo-4,6-diazaspiro[2.4]hept-4-en-5-yl)-2-fluorophenyl]-1-benzofu8ran-2-carbonitrile]	67	3.09
COC(=O)N1CC2(C1)N=C(c1ccc(-c3ccc4cccnc4c3)cc1)N(C[C@@H]1CCN(C(=O)C(F)(F)F)C1)C2=O [compound 731, Methyl 8-oxo-6-(4-quinolin-7-ylphenyl)-7-{[(3R)-1-(trifluoroacetyl)pyrrolidin-3-yl]methyl}-2,5,7-triazaspiro[3.4]oct-5-ene-2-carboxylate]	63	3.8
Cn1ncc2cc(-c3ccc(C4=NC5(CC5)C(=O)N4CC4CN(C(=O)C5CC5)C4)cc3)cnc21 [compound 503, 6-{[1-(Cyclopropylcarbonyl)azetidin-3-yl]methyl}-5-[4-(1-methyl-1H-pyrazolo[3,4-b]pyridin-5-yl)phenyl]-4,6-diazaspiro[2.4]hept-4-en-7-one]	58	5.75
O=C(C1CC1)N1CC(CN2C(=O)C3(CC3)N=C2c2ccc(-c3ccc(O)cc3)cc2)C1 [compound 50, 6-{[1-(Cyclopropylcarbonyl)azetidin-3-yl]methyl}-5-(4′-hydroxybiphenyl-4-yl)-4,6-diazaspiro[2.4]hept-4-en-7-one]	64.8	3.47
Cc1sc2ccc(-c3ccc(C4=NC5(CCN(C(C)C)CC5)C(=O)N4C[C@@H]4CCN(C(=O)C5CC5)C4)cc3)cc2c1C [compound 184, 3-{[(3R)-1-(Cyclopropylcarbonyl)pyrrolidin-3-yl]methyl}-2-[4-(2,3-dimethyl-1-benzothiophen-5-yl)phenyl]-8-(1-methylethyl)-1,3,8-triazaspiro[4.5]dec-1-en-4-one]	107	0.437
COC(=O)N1CC(CN2C(=O)C3(CCOCC3)N=C2c2ccc(-c3ccc4c(cnn4C)c3)cc2)C1 [compound 941, methyl 3-((2-(4-(1-methyl-1H-indazol-5-yl)phenyl)-4-oxo-8-oxa-1,3-diazaspiro[4.5]dec-1-en-3-yl)methyl)azetidine-1-carboxylate]	5	> 10
Cc1sc2ccc(-c3ccc(C4=NC5(CCN(C(=O)C(C)C)CC5)C(=O)N4C[C@@H]4CCN(C(=O)C5CC5)C4)cc3)cc2c1C [compound 183, 3-{[(3R)-1-(Cyclopropylcarbonyl)pyrrolidin-3-yl]methyl}-2-[4-(2,3-dimethyl-1-benzothiophen-5-yl)phenyl]-8-(2-methylpropanoyl)-1,3,8-triazaspiro[4.5]dec-1-en-4-one]	109	0.138
Cn1nccc1-c1ccc(-c2ccc(C3=NC4(CC4)C(=O)N3CC3CCN(C(=O)C4CC4)CC3)cc2)cc1 [compound 62, 6-{[1-(Cyclopropylcarbonyl)piperidin-4-yl]methyl}-5-[4′-(1-methyl-1H-pyrazol-5-yl)biphenyl-4-yl]-4,6-diazaspiro[2.4]hept-4-en-7-one]	29.3	> 10
Cc1sc2ccc(-c3ccc(C4=NC5(CC5)C(=O)N4CC4CN(C(=O)C5CC5)C4)cc3F)cc2c1C [compound 434, 6-{[1-(Cyclopropylcarbonyl)azetidin-3-yl]methyl}-5-[4-(2,3-dimethyl-1-benzothiophen-5-yl)-3-fluorophenyl]-4,6-diazaspiro[2.4]hept-4-en-7-one]	73	2.04
O=C(C1CC1)N1CC[C@@H](CN2C(=O)C3(CC3)N=C2c2cnc(-c3ccc4occc4c3)nc2)C1 [compound 458, 5-[2-(1-Benzofuran-5-yl)pyrimidin-5-yl]-6-{[(3R)-1-(cyclopropylcarbonyl)pyrrolidin-3-yl]methyl}0-4,6-diazaspiro[2.4]hept-4-en-7-one]	48	8.13
NC(=O)CN1CC[C@@H](CN2C(=O)C3(CCN(Cc4ccccc4)CC3)N=C2c2ccc(-c3ccc4occc4c3)cc2)C1 [compound 95, 2-[(3R)-3-({2-[4-(1-Benzofuran-5-yl)phenyl]-8-benzyl-4-oxo-1,3,8-triazaspiro[4.5]dec-1-en-3-yl}methyl)pyrrolidin-1-yl]acetamide]	24.4	> 10
O=C(CN1CC[C@@H](CN2C(=O)C3(CCN(Cc4ccccc4)CC3)N=C2c2ccc(-c3ccc4occc4c3)cc2)C1)C1CC1 [compound 96, 2-[4-(1-Benzofuran-5-yl)phenyl]-8-benzyl-3-{[(3R)-1-(2-cyclopropyl-2-oxoethyl)pyrrolidin-3-yl]methyl}-1,3,8-triazaspiro[4.5]dec-1-en-4-one]	71.2	5.01
Nc1cc(-c2ccc(C3=NC4(CC4)C(=O)N3CC3CN(C(=O)C4CC4)C3)cc2)ccc1O [compound 53, 5-(3′-Amino-4′-hydroxybiphenyl-4-yl)-6-{[1-(cyclopropylcarbonyl)azetidin-3-yl]methyl}-4,6-diazaspiro[2.4]hept-4-en-7-one]	78.6	1.95
CC(C)N1CCC2(CC1)N=C(c1ccc(-c3ccc(-c4cnn(C)c4)cc3)cc1)N(CC1CN(C(=O)C3CC3)C1)C2=O [compound 771, 3-{[1-(Cyclopropylcarbonyl)azetidin-3-yl]methyl}-8-(1-methylethyl)-2-[4′-(1-methyl-1H-pyrazol-4-yl)biphenyl-4-yl]-1,3,8-triazaspiro[4.5]dec-1-en-4-one]	44	7.59
Cn1ncc2cc(-c3ccc(C4=NC5(CCN(C(=O)C6CC6)CC5)C(=O)N4C[C@@H]4CCN(C(=O)C5CC5)C4)cc3)ccc21 [compound 140, 8-(Cyclopropylcarbonyl)-3-{[(3R)-1-(cyclopropylcarbonyl)pyrrolidin-3-yl]methyl}-2-[4-(1-methyl-1H-indazol-5-yl)phenyl]-1,3,8-triazaspiro[4.5]dec-1-en-4-one]	114	0.224
CN(C)CC(=O)N1CCC2(CC1)N=C(c1ccc(-c3ccc(-c4cnn(C)c4)cc3)cc1)N(CC1CN(C(=O)C3CC3)C1)C2=O [compound 768, 3-{[1-(Cyclopropylcarbonyl)azetidin-3-yl]methyl}-8-(N,N-dimethylglycyl)-2-[4′-(1-methyl-1H-pyrazol-4-yl)biphenyl-4-yl]-1,3,8-triazaspiro[4.5]dec-1-en-4-one]	79	1.45
Cn1cc(-c2ccc(-c3ccc(C4=NC5(CCN(S(C)(=O)=O)CC5)C(=O)N4CC4CN(C(=O)C5CC5)C4)cc3)cc2)cn1 [compound 769, 3-{[1-(Cyclopropylcarbonyl)azetidin-3-yl]methyl}-2-[4′-(1-methyl-1H-pyrazol-4-yl)biphenyl-4-yl]-8-(methylsulfonyl)-1,3,8-triazaspiro[4.5]dec-1-en-4-one]	60	5.01
CN(C)CC(=O)N1CCC2(CC1)N=C(c1ccc(-c3ccc4cnccc4c3)cc1)N(CC1CN(C(=O)C3CC3)C1)C2=O [compound 154, 3-{[1-(Cyclopropylcarbonyl)azetidin-3-yl]methyl}-8-(N,N-dimethylglycyl)-2-(4-isoquinolin-6-ylphenyl)-1,3,8-triazaspiro[4.5]dec-1-en-4-one]	109	0.269
CC(=O)c1ccc(-c2ccc(C3=NC4(CCCC4)C(=O)N3C[C@@H]3CCN(C(=O)C4CC4)C3)c(F)c2)cc1 [compound 886, (R)-2-(4′-acetyl-3-fluoro-[1,1′-biphenyl]-4-yl)-3-((1-(cyclopropanecarbonyl)pyrrolidin-3-yl)methyl)-1,3-diazaspiro[4.4]non-1-en-4-one]	79	1.91
CC(C)C(=O)N1CCC2(CC1)N=C(c1ccc(-c3ccc4occc4c3)cc1)N(C[C@@H]1CCN(C(=O)C3CC3)C1)C2=O [compound 151, 2-[4-(1-Benzofuran-5-yl)phenyl]-3-{[(3R)-1-(cyclopropylcarbonyl)pyrrolidin-3-yl]methyl}-8-(2-methylpropanoyl)-1,3,8-triazaspiro[4.5]dec-1-en-4-one]	112	0.129
CC(C)n1ncc2cc(-c3ccc(C4=NC5(CC5)C(=O)N4C[C@@H]4CCN(C(=O)C5CC5)C4)cc3)ccc21 [compound 454, 6-{[(3R)-1-(Cyclopropylcarbonyl)pyrrolidin-3-yl]methyl}-5-{4-[1-(1-methylethyl)-1H-indazol-5-yl]phenyl}-4,6-diazaspiro[2.4]hept-4-en-7-one]	53	~6.03
CC(C)n1cc2cc(-c3ccc(C4=NC5(CC5)C(=O)N4CC4CN(C(=O)C5CC5)C4)cc3)ccc2n1 [compound 808, 6-((1-(cyclopropanecarbonyl)azetidin-3-yl)methyl)-5-(4-(2-isopropyl-2H-indazol-5-yl)phenyl)-4,6-diazaspiro[2.4]hept-4-en-7-one]	31	> 10
O=C(C1CC1)N1CCC[C@@H](CN2C(=O)C3(CC3)N=C2c2ccc(-c3ccc4occc4c3)cc2)C1 [compound 395, 5-[4-(1-Benzofuran-5-yl)phenyl]-6-{[(3R)-1-(cyclopropylcarbonyl)piperidin-3-yl]methyl}-4,6-diazaspiro[2.4]hept-4-en-7-one]	54	6.31

From patent US10077261B2, “Imidazolin-5-one derivative useful as FASN inhibitors for the treatment of cancer” (Janssen Pharmaceutica NV, priority 2012, dated 2018)
